ChEMBL document CHEMBL5034023, “Development of Multifunctional and Orally Active Cyclic Peptide Agonists of Opioid/Neuropeptide FF Receptors that Produce Potent, Long-Lasting, and Peripherally Restricted Antinociception with Diminished Side Effects” (J Med Chem, 2021)
Active and inactive are the calls of the source. The rule behind the calls is not given here. Bridge positions count the residues as written; N and C are the ends. Square brackets hold non-standard residues; d marks the D form. Peptide text beside a SMILES is read from it. NMeF = CN[C@@H](Cc1ccccc1)C(=O)O

Experiments:
[1] = system: Mus musculus; assay: Antinociceptive activity in po dosed Kunming mouse assessed as analgesic tolerance by measuring increase in maximal possible effect administered for 8 consecutive days by tail flick test (Rvb= 1.16 nmol/kg); type: functional
[2] = system: Mus musculus; assay: Antinociceptive activity against Kunming mouse model of thermal-induced nociception assessed as prolongation of tail-flick latency period at 2 pmol, icv in presence of Nal measured up to 240 mins by tail-flick test; type: functional, organism-based; details: time min <=240
[3] = Toxicity in Kunming mouse assessed as effect on arterial partial pressure of oxygen at 868.1 nmol/kg, po measured up to 30 mins by blood gas analyzer; type: organism-based; details: in vivo, 0.5 h
[4] = Cmax in Kunming mouse at 868.1 nmol/kg, iv measured up to 120 mins by LC-MS/MS analysis; type: ADME, organism-based; design: route intravenous, dose 868.1 nmol/kg, time <=120; details: in vivo
[5] = target: Mu-type opioid receptor (Homo sapiens, UniProt P35372)
Chain of Mu-type opioid receptor (P35372 whole entry): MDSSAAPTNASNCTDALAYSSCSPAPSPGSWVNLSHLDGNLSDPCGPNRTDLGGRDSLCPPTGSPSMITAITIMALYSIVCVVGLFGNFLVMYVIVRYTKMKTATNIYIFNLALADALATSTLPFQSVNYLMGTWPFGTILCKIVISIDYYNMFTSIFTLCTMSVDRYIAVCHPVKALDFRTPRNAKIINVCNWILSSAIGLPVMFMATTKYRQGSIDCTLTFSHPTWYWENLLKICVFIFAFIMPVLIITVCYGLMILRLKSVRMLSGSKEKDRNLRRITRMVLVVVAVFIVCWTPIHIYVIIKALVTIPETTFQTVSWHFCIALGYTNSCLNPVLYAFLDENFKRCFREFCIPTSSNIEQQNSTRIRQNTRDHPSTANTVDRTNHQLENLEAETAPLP

[6] = system: Mus musculus; assay: Antinociceptive activity against Kunming mouse model of thermal-induced nociception assessed as prolongation of tail-flick latency period at 8.68 nmol/kg, po measured up to 240 mins by tail-flick test; type: functional, organism-based; details: time min <=240
[7] = AUC (0 to infinity) in Kunming mouse at 868.1 nmol/kg, po measured up to 120 mins by LC-MS/MS analysis; type: ADME, organism-based; design: route oral, dose 868.1 nmol/kg, time <=120; details: in vivo, 2 h
[8] = Toxicity in Kunming mouse assessed as effect on arterial pH at 868.1 nmol/kg, po measured up to 30 mins by blood gas analyzer; type: organism-based; details: in vivo, 0.5 h
[9] = system: Mus musculus; assay: Antinociceptive activity against Kunming mouse model of thermal-induced nociception assessed as prolongation of tail-flick latency period at 8.68 nmol/kg, sc in presence of NALM at 5 nmol/kg, icv measured up to 240 mins by tail-flick test; type: functional, organism-based; details: time min <=240
[10] = system: Mus musculus; assay: Antinociceptive activity against Kunming mouse model of thermal-induced nociception assessed as prolongation of tail-flick latency period at 8.68 nmol/kg, po in presence of beta-FNA at 1 mg/kg, ip measured up to 240 mins by tail-flick test; type: functional, organism-based; details: time min <=240
[11] = system: Mus musculus; assay: Antinociceptive activity against icv dosed Kunming mouse model of thermal-induced nociception assessed as prolongation of tail-flick latency period measured up to 240 mins by tail-flick test; type: functional; details: time min <=240
[12] = Apparent volume of distribution in Kunming mouse at 868.1 nmol/kg, iv measured up to 120 mins by LC-MS/MS analysis; type: ADME, organism-based; details: in vivo, read-out: Vd(app)
[13] = Apparent volume of distribution in Kunming mouse at 868.1 nmol/kg, po measured up to 120 mins by LC-MS/MS analysis; type: ADME, organism-based; details: in vivo, 2 h
[14] = Toxicity in Kunming mouse assessed as effect on motor coordination at 86.8 to 868.1 nmol/kg, po measured after 10 to 40 mins by Rotarod test; type: organism-based; details: in vivo, dose lower 86.8 nmol/kg, time lower 10 min, dose upper 868.1 nmol/kg, time upper 40 min
[15] = system: Mus musculus; assay: Antinociceptive activity against Kunming mouse model of thermal-induced nociception assessed as prolongation of tail-flick latency period at 2 pmol, icv in presence of NTI measured up to 240 mins by tail-flick test; type: functional, organism-based; details: time min <=240
[16] = system: Mus musculus; assay: Antinociceptive activity in Kunming mouse assessed as analgesic tolerance by measuring fold shift in maximal possible effect at 8.68 nmol/kg, po administered for 8 consecutive days by tail flick test; type: functional
[17] = system: Mus musculus; assay: Antinociceptive activity against Kunming mouse model of thermal-induced nociception assessed as duration of analgesic effect administered subcutaneously by tail-flick test; type: functional
[18] = system: Mus musculus; assay: Antinociceptive activity against Kunming mouse model of thermal-induced nociception assessed as prolongation of tail-flick latency period at 8.68 nmol/kg, sc in presence of beta-FNA at 1 mg/kg, sc measured up to 240 mins by tail-flick test; type: functional, organism-based; details: time min <=240
[19] = Clearance in Kunming mouse at 868.1 nmol/kg, po measured up to 120 mins by LC-MS/MS analysis; type: ADME, organism-based; details: in vivo
[20] = target: Neuropeptide FF receptor 1 (Homo sapiens, UniProt Q9GZQ6); assay: Agonist activity at NPFF1R (unknown origin) expressed in HEK293-A cells assessed as inhibition of forskolin-induced cAMP accumulation preincubated for 30 mins in presence of 3-isobutyl-1-methylxanthine followed by forskolin and compound addition by competitive PKA binding assay; type: functional, cell-based
Chain of Neuropeptide FF receptor 1 (Q9GZQ6 whole entry): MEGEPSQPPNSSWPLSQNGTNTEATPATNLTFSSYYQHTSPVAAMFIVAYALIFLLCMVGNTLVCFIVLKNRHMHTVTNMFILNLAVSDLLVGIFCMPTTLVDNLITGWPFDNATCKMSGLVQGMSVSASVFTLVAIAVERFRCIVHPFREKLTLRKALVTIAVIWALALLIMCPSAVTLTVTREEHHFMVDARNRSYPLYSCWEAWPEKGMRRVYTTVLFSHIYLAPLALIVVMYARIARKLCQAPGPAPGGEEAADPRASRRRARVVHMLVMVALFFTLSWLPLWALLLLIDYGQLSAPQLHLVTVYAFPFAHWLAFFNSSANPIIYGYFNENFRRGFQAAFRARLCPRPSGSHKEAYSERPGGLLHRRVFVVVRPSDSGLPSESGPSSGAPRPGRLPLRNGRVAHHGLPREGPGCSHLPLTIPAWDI

[21] = system: Mus musculus; assay: Antinociceptive activity against Kunming mouse model of thermal-induced nociception assessed as maximum possible effect at 8.68 nmol/kg, po measured after 20 min by tail flick test relative to control; type: functional
[22] = Toxicity in Kunming mouse assessed as effect on conditioned place preference at 868.1 nmol/kg, po measured for 5 days; type: organism-based; details: in vivo, 120 h, time 5 day
[23] = Toxicity in Kunming mouse assessed as inhibition of gastrointestinal transit at 8681 nmol/kg, po measured after 30 mins by charcoal meal test relative to control; type: organism-based; design: scale not given: the % may be the effect or the level left; details: in vivo, 0.5 h
[24] = system: Mus musculus; assay: Antinociceptive activity against Kunming mouse model of thermal-induced nociception assessed as prolongation of tail-flick latency period at 8.68 nmol/kg, sc in presence of RF9 at 5 mg/kg, sc measured up to 240 mins by tail-flick test; type: functional, organism-based; details: time min <=240
[25] = target: Kappa-type opioid receptor (Homo sapiens, UniProt P41145); type: functional, cell-based, HEK293-A
Chain of Kappa-type opioid receptor (P41145 whole entry): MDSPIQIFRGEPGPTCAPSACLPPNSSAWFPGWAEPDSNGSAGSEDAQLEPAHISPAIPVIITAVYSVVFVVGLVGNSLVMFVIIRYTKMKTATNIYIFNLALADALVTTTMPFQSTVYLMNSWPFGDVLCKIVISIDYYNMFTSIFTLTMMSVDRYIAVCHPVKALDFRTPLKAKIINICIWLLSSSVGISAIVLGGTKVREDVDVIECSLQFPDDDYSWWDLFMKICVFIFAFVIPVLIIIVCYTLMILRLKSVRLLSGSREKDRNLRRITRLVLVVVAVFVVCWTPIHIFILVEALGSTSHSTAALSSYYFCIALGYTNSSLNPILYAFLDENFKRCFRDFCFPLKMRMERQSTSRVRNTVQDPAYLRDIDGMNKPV

[26] = target: Delta-type opioid receptor (Homo sapiens, UniProt P41143); assay: Agonist activity at DOR (unknown origin) expressed in HEK293-A cells assessed as inhibition of forskolin-induced cAMP accumulation preincubated for 30 mins in presence of 3-isobutyl-1-methylxanthine followed by forskolin and compound addition by competitive PKA binding assay; type: functional, cell-based
Chain of Delta-type opioid receptor (P41143 whole entry): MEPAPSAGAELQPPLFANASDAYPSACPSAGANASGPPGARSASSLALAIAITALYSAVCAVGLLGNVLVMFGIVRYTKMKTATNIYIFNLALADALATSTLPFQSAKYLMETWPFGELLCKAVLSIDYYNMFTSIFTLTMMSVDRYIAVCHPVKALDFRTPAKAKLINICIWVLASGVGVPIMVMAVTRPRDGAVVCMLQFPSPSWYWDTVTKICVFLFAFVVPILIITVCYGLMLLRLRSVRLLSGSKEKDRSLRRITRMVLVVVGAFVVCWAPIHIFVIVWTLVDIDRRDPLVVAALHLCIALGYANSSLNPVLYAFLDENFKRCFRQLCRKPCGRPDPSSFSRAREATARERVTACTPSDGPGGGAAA

[27] = Toxicity in Kunming mouse assessed as effect on arterial partial pressure of carbon dioxide at 868.1 nmol/kg, po measured up to 30 mins by blood gas analyzer; type: organism-based; details: in vivo, 0.5 h
[28] = Toxicity in Kunming mouse assessed as effect on arterial bicarbonate level at 868.1 nmol/kg, po measured up to 30 mins by blood gas analyzer; type: organism-based; details: in vivo, 0.5 h
[29] = Toxicity in Kunming mouse assessed as inhibition of gastrointestinal transit at 868.1 nmol/kg, po in presence of RF9 at 10 mg/kg, ip measured after 30 mins by charcoal meal test; type: organism-based; details: in vivo, 0.5 h
[30] = system: Mus musculus; assay: Antinociceptive activity against Kunming mouse model of thermal-induced nociception assessed as prolongation of tail-flick latency period at 8.68 nmol/kg, po in presence of NALM at 1 mg/kg, ip measured up to 240 mins by tail-flick test; type: functional, organism-based; details: time min <=240
[31] = system: Mus musculus; assay: Antinociceptive activity against Kunming mouse model of thermal-induced nociception assessed as prolongation of tail-flick latency period at 2 pmol, icv in presence of bet-FNA measured up to 240 mins by tail-flick test; type: functional, organism-based; details: time min <=240
[32] = system: Mus musculus; assay: Antinociceptive activity against Kunming mouse model of thermal-induced nociception assessed as prolongation of tail-flick latency period at 8.68 nmol/kg, po in presence of NALM at 5 nmol, icv measured up to 240 mins by tail-flick test; type: functional, organism-based; details: time min <=240
[33] = system: Mus musculus; assay: Antinociceptive activity against Kunming mouse model of thermal-induced nociception assessed as prolongation of tail-flick latency period at 2 pmol, icv in presence of nor-BNI measured up to 240 mins by tail-flick test; type: functional, organism-based; details: time min <=240

Compound: CN1C(=O)CNC(=O)[C@H](NC(=O)[C@@H](N)Cc2ccc(O)cc2)CCCCNC(=O)C[C@@H](C(=O)N2CCC[C@H]2C(=O)N[C@@H](CCC(N)=O)C(=O)N[C@@H](CCCNC(=N)N)C(=O)N[C@@H](Cc2ccccc2)C(N)=O)NC(=O)[C@@H]1Cc1ccccc1 (H-Y[dK]G[NMeF]DPQRF-NH2; lactam 2-5)
- ED50 [1]: 0.00126 µmol/kg
- Activity [2]: inactive
- Activity [3]: Non-Toxic
- Cmax [4]: 5070 ng/mL
- EC50 [5]: 93.5 nM
- Activity [6]: Active
- AUC [7]: 13800.8 µg·min/L
- Activity [8]: Non-Toxic
- Activity [9]: Active
- Activity [10]: inactive
- ED50 [11]: 0.63 pmol
- Vd [12]: 1.2 L/kg
- Vd(app) [13]: 15.9 L/kg
- Activity [14]: Non-Toxic
- Activity [15]: Active
- fold change (FC) [16]: 0.92
- Tlast [17]: 240 min
- Activity [18]: inactive
- CL/F [19]: 130 mL/min/kg
- EC50 [20]: 580 nM
- MPE [21]: 89.7%
- Activity [22]: Non-Toxic
- Activity [23]: > 50%
- Activity [24]: Active
- EC50 [25]: 39 nM
- EC50 [26]: 546 nM
- Activity [27]: Non-Toxic
- Activity [28]: Non-Toxic
- Activity [29]: Non-Toxic
- Activity [30]: inactive
- Activity [31]: inactive
- Activity [32]: Active
- Activity [33]: inactive
